These results are taken from patent US20140051685A1, “THERAPEUTIC TREATMENT FOR METABOLIC SYNDROME, TYPE 2 DIABETES, OBESITY OR PREDIABETES” (priority 2010, published 2014).

SMILES strings stand for the structures.

Assay type in all cases: in vivo
Assay [1] has as its system obese, diabetic female ob/ob mice. The experiment in a line: Fusaric acid plus SKF 38393 in ob/ob mice. The following applies: fusaric acid 15 mg/kg, SKF 38393 10 mg/kg. How it is done:
Fusaric acid is a dopamine beta hydroxylase inhibitor that reduces noradrenaline synthesis in noradrenergic neurons. It is not present in dopaminergic neurons and thus exerts no such effect there. SKF38393 is a post-synaptic dopamine D1 receptor agonist with no marked influence on noradrenergic neurons. A study was conducted to determine the interactive effects of fusaric acid plus SKF 38393 on body fat store levels, and blood glucose and plasma triglyceride levels in ob/ob mice. The ob/ob mouse is hyperphagic, obese, insulin resistant, diabeteic and dyslipidemic due to the absence of functional leptin as a result of a mutation in this gene.
Obese, diabetic female ob/ob mice (body weight of approximately 33 g) maintained on 14 hour daily photoperiods, housed one per cage and allowed to feed ad libitum were randomized to once daily treatment with either fusaric acid (15 mg/kg; n=6-8), SKF 38393 (10 mg/kg; n=6-8), both fusaric acid (15 mg/kg) and SKF 38393 (10 mg/kg) (n=6-8), or vehicle (control group; n=6-8) for a 14 day period. On the fifteenth day of the study and approximately 24 hours after the final treatment animals were sacrificed and blood samples were obtained for the analyses of blood glucose, plasma free fatty acid and triglyceride levels. Relative to controls, fusaric acid raised blood glucose from 380±30 mg/dl to 430±30 mg/dl and SKF 38393 reduced blood glucose to 290±55 mg/dl. However, fusaric acid plus SKF 38393 reduced blood glucose to 180±20 mg/dl. […] Neither fusaric acid nor SKF 38393 had any effect on retroperitoneal fat pad weight (735±43 mg and 735±50 mg, respectively versus control value of 727±25 mg) however, the combination of fusaric acid plus SKF 38393 reduced retroperitoneal fat pad weight to 680±25 mg.

Assay [2] relates to female mice fed a high fat diet for 20 weeks. Briefly: GBR 12909 plus fusaric acid in mice fed a high fat diet. The protocol: Female mice at 4 weeks of age were fed a high fat diet for 20 weeks to induce diabetes and insulin resistance and continued on such diet while treated for 14 days with either GBR 12909 (10 mg/kg), FA (15 mg/kg), GBR 12909 (10 mg/kg) plus FA (15 mg/kg), or vehicle and sacrificed after 14 days of treatment for the analyses of body fat, blood glucose, plasma insulin, and plasma nitric oxide levels. […] Only the GBR/FA group normalized plasma insulin levels. […] This effect was not observed with either GBR or FA treatments alone.

Assay [3] relates to high fat fed, hypertensive SHR rats. The experiment in a line: Quinelorane plus fusaric acid in high fat fed, hypertensive SHR rats. The following applies: SHR rats on high fat diet. How it is done:
Male SHR rats were maintained on 14 hour daily photoperiods and fed a high fat diet (60% of energy from fat; 5.24 kcal/gram weight) for 3 weeks and then divided into different groups and treated with either quinelorane (Q; a dopamine D2/D3 mixed receptor agonist) (0.075 mg/kg), fusaric acid (FA; a dopamine beta hydroxylase inhibitor) (12.5 mg/kg), quinelorane (0.075 mg/kg) plus FA (Q/FA) (12.5 mg/kg), or vehicle at 13 hours after light onset for 17 days. The doses of Q and FA were set at less than half maximal to effect central dopamine receptor binding functions and dopamine beta hydroxylase activity, respectively. […] Blood pressure measurements were taken at 14 days of treatment and animals were sacrificed at 18 days of treatment for analyses of body fat and humoral factors and metabolites. […] Respecting blood glucose, although both Q and FA reduced glucose level relative to vehicle, only the Q/FA regimen normalized blood glucose in these animals relative to vehicle (FIG. 6).

For assay [4], the system named is female obese diabetic mice (ob/ob strain). The experiment in a line: Bupropion plus fusaric acid in ob/ob mice. The following applies: bupropion 40 mg/kg, FA 10 mg/kg, 14 days, relative to control, FIG. 9. How it is done: Female obese diabetic mice (ob/ob strain) at 6 weeks of age were fed standard rodent chow and different groups of animals (n=5-7/group) were treated with bupropion (40 mg/kg), FA (10 mg/kg), bupropion (40 mg/kg) plus FA (10 mg/kg), or vehicle for 14 days and then sacrificed for the analyses of blood glucose and body fat store level.

Assay [5] relates to female ob/ob obese diabetic mice. The experiment in a line: Bromocriptine plus GBR 12909 in ob/ob mice. The settings on record: BC 10 mg/kg, GBR 12909 20 mg/kg, daily 14 days, relative to vehicle, FIG. 10. The protocol: The effects of adding GBR (a selective dopamine reuptake inhibitor) to bromocriptine (a dopamine D2 receptor agonist that can reduce central norepinephrine neuronal activity) in an effort to circumvent the impact of the D2 receptor agonist effect to reduce endogenous dopamine and to therefore improve metabolic disorders was examined in ob/ob mice treated with either vehicle, bromocriptine (BC) (10 mg/kg), GBR 12909 (20 mg/kg) or bromocriptine (10 mg/kg) plus GBR 12909 (20 mg/kg). Female ob/ob obese diabetic mice were fed standard chow and different groups of animals (n=5-7 group) were treated daily for 14 days with bromocriptine (to reduce norepinephrine neuronal activity) (10 mg/kg), GBR 12909 (to increase dopaminergic neuronal activity) (20 mg/kg) or with bromocriptine (10 mg/kg) plus GBR 12909 (20 mg/kg), or vehicle. […] BC had no effect on blood glucose level.

Assay [6] has as its system mice fed a high fat diet for 20 weeks. The experiment in a line: Bromocriptine plus GBR 12909 in mice fed a high fat diet. The settings on record: BC 5 mg/kg, GBR 12909 5 mg/kg. How it is done: The effects of adding GBR (a selective dopamine reuptake inhibitor) to bromocriptine (a dopamine D2 receptor agonist that can reduce central norepinephrine neuronal activity) in an effort to circumvent the impact of the D2 receptor agonist effect to reduce endogenous dopamine and to therefore improve metabolic disorders was examined in mice fed a high fat diet for 20 weeks and then treated with either vehicle, bromocriptine (BC) (5 mg/kg), GBR 12909 (5 mg/kg) or bromocriptine (5 mg/kg) plus GBR 12909 (5 mg/kg). […] Again, increasing central dopaminergic neuronal activity and decreasing central norepinephrine neuronal activity simultaneously produces synergistic reductions in metabolic disorders. […] BC alone had no effect on plasma insulin level (FIG. 21).

Take `CCCCc1ccc(C(=O)O)nc1` [fusaric acid, 5-butyl-2-pyridinecarboxylic acid]: the “retroperitoneal fat pad weight” value in assay [1] (14 days, control value 727±25) is 735 ± 43 mg. Besides, the plasma triglyceride level in assay [1] (14 days, controls 155±15) worked out at 170 ± 27 mg/dL. Further, the blood glucose in assay [1] (alone or both, once daily 14 days, controls 380±30) was 430 ± 30 mg/dL; in assay [4] it was “no significant effect”. In assay [2] (2 weeks of treatment, normal weight for age matched controls=28 grams, FIG. 15), the “body weight (normalization)” value is “not observed”. The “plasma insulin levels compared to lean, insulin sensitive, non-diabetic mice” value in assay [2] (GBR 12909 10 mg/kg, FA 15 mg/kg, 14 days, FIG. 12) is “significantly higher”. For the same compound, the “change from baseline body weight (weight loss)” value in assay [3] (Q 0.075 mg/kg, FA 12.5 mg/kg, 17 days, at 13 hours after light onset, FIGS. 1 and 2) is “modest if any effects”. In addition, the “plasma C-reactive protein (CRP) level” value in assay [3] (relative to vehicle, 18 days of treatment) is listed as “no significant effect”. Further, the blood glucose level entry in assay [3] (relative to vehicle, FIG. 6) is “reduced”.

In the case of `CC(C)C[C@H]1C(=O)N2CCC[C@H]2[C@]2(O)O[C@](NC(=O)[C@@H]3C=C4c5cccc6[nH]c(Br)c(c56)C[C@H]4N(C)C3)(C(C)C)C(=O)N12` [bromocriptine], the blood glucose level result in assay [5] is on record as “no effect”. For the same compound, in assay [6] (FIG. 21), the plasma insulin level entry is reported as “no effect”. The “HOMA-IR (insulin resistance)” value in assay [6] (FIG. 22) is “no significant effect”.
